This is an account of results in BindingDB's records for doi:10.1016/s0022-2836(03)00399-1 (Celera, 2003).

Test in all cases: Enzyme Assay and Determination of the Inhibition Constants
For one test, the target named is Coagulation factor X (Homo sapiens, UniProt P00742).
Another test deals with Prothrombin (Homo sapiens, UniProt P00734).
The target of test [1] is T1, Serine protease 1 (Bos taurus, UniProt P00760).
T1 sequence (P00760 whole entry): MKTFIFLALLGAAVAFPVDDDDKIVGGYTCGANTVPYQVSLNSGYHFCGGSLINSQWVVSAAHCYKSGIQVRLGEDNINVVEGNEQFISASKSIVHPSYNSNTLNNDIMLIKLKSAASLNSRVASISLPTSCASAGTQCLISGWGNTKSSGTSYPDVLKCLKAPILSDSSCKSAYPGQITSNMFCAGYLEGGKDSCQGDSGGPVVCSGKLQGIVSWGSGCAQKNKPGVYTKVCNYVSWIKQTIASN
Description: (§1) Each enzyme was assayed with a set of different concentrations of each inhibitor. […] Ki(apparent) values were calculated from enzyme velocity curves using the software package BatchKi (BioKin Ltd, Madison, WI). These apparent inhibition constants were then converted to Ki values by assuming competitive inhibition and using the formula Ki = Ki(apparent)/(1 + S/Km).

For test [2], the target named is Urokinase-type plasminogen activator (Homo sapiens, UniProt P00749).
Description: as §1
The target of test [3] is Serine protease 1 (Homo sapiens, UniProt P07477).
Description: as §1

A word on the Ki: it is the equilibrium dissociation constant of an inhibitor or competing ligand from its target. Read a high Ki as lower affinity.

Serine protease 1 (Homo sapiens, UniProt P07477), sequence (P07477 whole entry): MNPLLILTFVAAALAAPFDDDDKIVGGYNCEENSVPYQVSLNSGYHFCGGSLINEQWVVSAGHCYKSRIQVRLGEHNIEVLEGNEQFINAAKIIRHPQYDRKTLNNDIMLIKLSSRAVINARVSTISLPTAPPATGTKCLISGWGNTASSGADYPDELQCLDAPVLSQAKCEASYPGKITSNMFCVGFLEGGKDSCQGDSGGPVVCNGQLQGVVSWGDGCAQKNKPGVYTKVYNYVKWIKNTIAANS
Coagulation factor X, sequence (P00742 41-179 limits assumed): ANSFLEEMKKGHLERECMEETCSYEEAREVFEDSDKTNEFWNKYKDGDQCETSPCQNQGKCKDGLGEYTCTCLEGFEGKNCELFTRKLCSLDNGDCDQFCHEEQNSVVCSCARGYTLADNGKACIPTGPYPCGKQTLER
Coagulation factor X, sequence (P00742 235-488 limits assumed): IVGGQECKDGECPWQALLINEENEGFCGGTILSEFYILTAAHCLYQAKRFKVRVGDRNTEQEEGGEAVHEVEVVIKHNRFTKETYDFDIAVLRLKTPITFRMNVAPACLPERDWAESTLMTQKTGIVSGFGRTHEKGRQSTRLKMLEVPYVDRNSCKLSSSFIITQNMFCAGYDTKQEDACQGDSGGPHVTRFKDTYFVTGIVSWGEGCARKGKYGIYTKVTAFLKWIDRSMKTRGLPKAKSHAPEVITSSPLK
Description for Coagulation factor X: as §1
Description for Prothrombin: as §1

`N=C(N)c1ccc2nc(-c3cc([N+](=O)[O-])ccc3O)[nH]c2c1` [2-{5-[amino(iminiumyl)methyl]-1H-1,3-benzodiazol-2-yl}-4-nitrobenzen-1-olate]: the Ki at Coagulation factor X is 7300 nM; at Prothrombin, 23000 nM; at Serine protease 1 [1] (pH 6.1, 22 °C), 470 nM; in test [2], 5100 nM.

Take `COc1ccc(O)c(-c2nc3ccc(C(=N)N)cc3[nH]2)c1` [{amino[2-(2-hydroxy-5-methoxyphenyl)-1H-1,3-benzodiazol-5-yl]methylidene}azanium]: the Ki on Coagulation factor X came to 8000 nM; on Serine protease 1 [1] (pH 7.72, 22 °C), 1200 nM.

`N=C(N)c1cc2cc(-c3cccc(-c4ccccc4)c3O)[nH]c2cc1F` [CA-12]: the results for the Ki at Prothrombin, at Serine protease 1 [1] and at Serine protease 1 [3] were 6300 nM, 190 nM and 660 nM, respectively.

For the compound `N=C(N)c1ccc2[nH]c(-c3cc(Cl)cc(-c4ccccc4)c3O)cc2c1` [2-{5-[amino(iminiumyl)methyl]-1H-indol-2-yl}-4-chloro-6-phenylbenzen-1-olate], the Ki at Coagulation factor X worked out at 250 nM; at Prothrombin, 1000 nM; on Serine protease 1 [1], 13 nM; at Serine protease 1 [3], 540 nM; in test [2] it was 590 nM.

With `N=C(N)c1ccc2[nH]c(-c3cc([N+](=O)[O-])cc(-c4ccccc4)c3O)cc2c1` [2-{5-[amino(iminiumyl)methyl]-1H-indol-2-yl}-4-nitro-6-phenylbenzen-1-olate], the inhibition constant (Ki) came out at 13 nM on Coagulation factor X, 1.3 nM at Serine protease 1 [1] and 80 nM on Serine protease 1 [3].

In the case of `N=C(N)c1cc2nc(-c3cccc(-c4ccccc4)c3O)[nH]c2cc1F` [2-{5-[amino(iminiumyl)methyl]-6-fluoro-1H-1,3-benzodiazol-2-yl}-6-phenylbenzen-1-olate], the Ki on Serine protease 1 [1] (pH 7.5, 22 °C) turned out to be 230 nM; at Serine protease 1 [3] it was 12000 nM; in test [2] it was 280 nM.

As for `Cc1cc(-c2ccccc2)c(O)c(-c2cc3cc(C(=N)N)ccc3[nH]2)c1` [2-{5-[amino(iminiumyl)methyl]-1H-indol-2-yl}-4-methyl-6-phenylbenzen-1-olate], the Ki on Coagulation factor X worked out at 180 nM; at Serine protease 1 [1] (pH 7.6, 22 °C), 15 nM; at Serine protease 1 [3], 380 nM; in test [2] it was 340 nM.

In the case of `CN(C)C(=O)c1cc(-c2ccccc2)c(O)c(-c2cc3cc(C(=N)N)c(Cl)cc3[nH]2)c1` [2-{5-[amino(iminiumyl)methyl]-6-chloro-1H-indol-2-yl}-4-(dimethylcarbamoyl)-6-phenylbenzen-1-olate], the Ki was determined as 8000 nM at Coagulation factor X, 33000 nM on Prothrombin, 190 nM on Serine protease 1 [3] and 2.2 nM in test [2].

With `N=C(N)c1ccc2[nH]c(-c3cc([C@@H](CC(=O)O)C(=O)O)cc(Br)c3O)cc2c1` [(2R)-2-(3-{5-[amino(iminiumyl)methyl]-1H-indol-2-yl}-5-bromo-4-oxidophenyl)butanedioate], the Ki on Coagulation factor X worked out at 48 nM; at Prothrombin, 1700 nM; on Serine protease 1 [1], 240 nM; at Serine protease 1 [3] it was 1700 nM.

The compound `N=C(N)c1ccc2nc(-c3cccc(OC4CCCC4)c3O)[nH]c2c1` [CA-06] yielded a Ki on Serine protease 1 [1] (pH 7.67, 22 °C) of 52 nM.

Consider `Cc1cc(Cl)c(O)c(-c2cc3cc(C(=N)N)ccc3[nH]2)c1` [2-{5-[amino(iminiumyl)methyl]-1H-indol-2-yl}-6-chloro-4-methylbenzen-1-olate], for which the Ki is 64 nM at Coagulation factor X, 230 nM at Prothrombin, 350 nM on Serine protease 1 [3] and 95 nM in test [2].

For `N=C(N)c1ccc2nc(-c3cc([C@@H](CC(=O)O)C(=O)O)cc(-c4ccccc4)c3O)[nH]c2c1` [(2R)-2-(3-{5-[amino(iminiumyl)methyl]-1H-1,3-benzodiazol-2-yl}-4-oxido-5-phenylphenyl)butanedioate], the Ki worked out at 1200 nM on Coagulation factor X; 160000 nM on Prothrombin; 290 nM on Serine protease 1 [1]; 3700 nM at Serine protease 1 [3]; 120 nM in test [2].

Turning to `N=C(N)c1ccc2nc(-c3cc([C@@H](CC(=O)O)C(=O)O)cc(-c4ccccc4N)c3O)[nH]c2c1` [(2R)-2-(3-{5-[amino(iminiumyl)methyl]-1H-1,3-benzodiazol-2-yl}-5-(2-aminophenyl)-4-oxidophenyl)butanedioate], the inhibition constant (Ki) is 3800 nM on Coagulation factor X, above 75000 nM at Prothrombin, 1100 nM at Serine protease 1 [1] and 8500 nM on Serine protease 1 [3].

Take `CN(C)C(=O)c1cc(-c2ccccc2)c(O)c(-c2cc3cc(C(=N)N)ccc3[nH]2)c1` [2-{5-[amino(iminiumyl)methyl]-1H-indol-2-yl}-4-(dimethylcarbamoyl)-6-phenylbenzen-1-olate]: the Ki came out at 52 nM at Coagulation factor X, 240 nM on Prothrombin, 37 nM at Serine protease 1 [3] and 3.2 nM in test [2].

`N=C(N)c1cc2cc(-c3cccc(OC4CCCC4)c3O)[nH]c2cc1Cl` [2-{5-[amino(iminiumyl)methyl]-6-chloro-1H-indol-2-yl}-6-(cyclopentyloxy)benzen-1-olate]: the Ki was found to be 60000 nM on Coagulation factor X, 240000 nM at Prothrombin, 2300 nM on Serine protease 1 [3] and 160 nM in test [2].

For `N=C(N)c1ccc2nc(-c3cc([C@@H](CC(=O)O)C(=O)O)ccc3O)[nH]c2c1` [(2R)-2-(3-{5-[amino(iminiumyl)methyl]-1H-1,3-benzodiazol-2-yl}-4-oxidophenyl)butanedioate], the Ki on Coagulation factor X is 10000 nM; on Prothrombin it was above 75000 nM; at Serine protease 1 [1] it was 10000 nM; at Serine protease 1 [3], 4400 nM.

On to `N=C(N)c1ccc2[nH]c(-c3ccccc3O)cc2c1` [2-{5-[amino(iminiumyl)methyl]-1H-indol-2-yl}benzen-1-olate], for which the inhibition constant (Ki) on Coagulation factor X is 2400 nM; at Prothrombin, 12000 nM; at Serine protease 1 [1] (pH 8.04, 22 °C), 600 nM; on Serine protease 1 [3], 4900 nM; in test [2], 2900 nM.
